Structures are written as SMILES. pIC50: −log10 of the molar value.

This assay concerns the target T1, Dihydrofolate reductase (Gallus gallus, UniProt P00378).
T1 sequence (P00378 whole entry): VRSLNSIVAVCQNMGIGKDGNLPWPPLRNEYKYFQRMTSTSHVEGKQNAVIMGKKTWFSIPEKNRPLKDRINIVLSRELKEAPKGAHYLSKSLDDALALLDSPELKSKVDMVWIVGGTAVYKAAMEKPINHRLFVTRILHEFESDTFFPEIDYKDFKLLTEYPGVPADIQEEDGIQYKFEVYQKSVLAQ
The assay can be described thus: Evaluated for the inhibition of chicken liver Dihydrofolate reductase by using standard enzyme assay. Conditions: read-out: I50.
Turning to `CN(Cc1cnc2nc(N)nc(N)c2n1)c1ccc(C(=O)NC(CCCCNC(=O)OCc2ccccc2)C(=O)O)cc1` (stereo unspecified), the pIC50 was 6.42.
Regarding `CN(Cc1cnc2nc(N)nc(N)c2n1)c1ccc(C(=O)NC(CCCNC(=O)OCc2ccccc2)C(=O)OC(C)(C)C)cc1` (stereo unspecified), the pIC50 is 5.51.
For the compound `CN(Cc1cnc2nc(N)nc(N)c2n1)c1ccc(C(=O)NC(CCCCNC(=O)OCc2ccccc2)C(=O)OC(C)(C)C)cc1` (stereo unspecified), the pIC50 was 6.02.
The same measure for `CN(Cc1cnc2nc(N)nc(N)c2n1)c1ccc(C(=O)NC(CCCNC(=O)OCc2ccccc2)C(=O)O)cc1` (stereo unspecified): 6.48; for `CN(Cc1cnc2nc(N)nc(N)c2n1)c1ccc(C(=O)NC(CCCN)C(=O)O)cc1` (stereo unspecified): 6.60.
The same measure for `CN(Cc1cnc2nc(N)nc(N)c2n1)c1ccc(C(=O)NC(CCCCN)C(=O)O)cc1` (stereo unspecified): 6.89.

For the origin of these results see ChEMBL document CHEMBL1122157 (J Med Chem, 1982).
